Experimental data reported in PubChem BioAssay AID328 (DTP/NCI, 2004).
Values joined by “and” are separate entries in the source; they are usually repeats but may differ in a detail not shown here. Equal values may be shown once. Toxic doses and inconclusive results are not listed.

Test system: BDF1 mice, P388 leukemia ip, median survival T/C
Test: NCI In Vivo Anticancer Drug Screen. Data for tumor model P388 Leukemia (intraperitoneal) in B6D2F1 (BDF1) mice
Details: endpoint: median survival time, higher = longer survival
Outline: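 Reported as T/C, where T is the survival measurement in dosed animals and C the same measurement in vehicle controls.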

[1] = dose: 100.0 mg/kg/injection, schedule: Q01DX009 (ip), vehicle: Klucel (hydroxypropylcellulose) (HPC)
[2] = dose: 100.0 mg/kg/injection, schedule: Q04DX003 (ip), vehicle: Klucel (hydroxypropylcellulose) (HPC)
[3] = dose: 200.0 mg/kg/injection, schedule: Q01DX009 (ip), vehicle: Klucel (hydroxypropylcellulose) (HPC)
[4] = dose: 200.0 mg/kg/injection, schedule: Q04DX003 (ip), vehicle: Klucel (hydroxypropylcellulose) (HPC)
[5] = dose: 100.0 mg/kg/injection, schedule: Q04DX003 (ip), vehicle: saline with Tween-80
[6] = dose: 200.0 mg/kg/injection, schedule: Q04DX003 (ip), vehicle: saline with Tween-80
[7] = dose: 400.0 mg/kg/injection, schedule: Q04DX003 (ip), vehicle: saline with Tween-80
[8] = dose: 6.25 mg/kg/injection, schedule: Q01DX009 (ip), vehicle: saline with Tween-80
[9] = dose: 12.5 mg/kg/injection, schedule: Q01DX009 (ip), vehicle: saline with Tween-80
[10] = dose: 50.0 mg/kg/injection, schedule: Q01DX009 (ip), vehicle: saline with Tween-80
[11] = dose: 100.0 mg/kg/injection, schedule: Q01DX009 (ip), vehicle: saline with Tween-80

Cc1c2oc3c(C)ccc(C(=O)NC4C(=O)NC(C(C)C)C(=O)N5CCCC5C(=O)N(C)CC(=O)N(C)C(C(C)C)C(=O)OC4C)c3nc-2c(C(=O)NC2C(=O)NC(C(C)C)C(=O)N3CCCC3C(=O)N(C)CC(=O)N(C)C(C(C)C)C(=O)OC2C)c(NCCCO)c1=O (centres undefined)
T/C (dose: 0.05 mg/kg/injection, schedule: Q01DX009 (ip), vehicle: saline + alcohol): 150 % of control
T/C (dose: 0.1 mg/kg/injection, schedule: Q01DX009 (ip), vehicle: saline + alcohol): 172 % of control
T/C (dose: 0.2 mg/kg/injection, schedule: Q01DX009 (ip), vehicle: saline + alcohol): 210 % of control
T/C (dose: 0.3 mg/kg/injection, schedule: Q04DX003 (ip), vehicle: saline + alcohol): 169 % of control
T/C (dose: 0.4 mg/kg/injection, schedule: Q01DX009 (ip), vehicle: saline + alcohol): 226 % of control
T/C (dose: 0.6 mg/kg/injection, schedule: Q04DX003 (ip), vehicle: saline + alcohol): 191 % of control
T/C (dose: 0.8 mg/kg/injection, schedule: Q01DX001 (ip), vehicle: saline + alcohol): 153 % of control
T/C (dose: 0.8 mg/kg/injection, schedule: Q01DX009 (ip), vehicle: saline + alcohol): 285 % of control
T/C (dose: 1.2 mg/kg/injection, schedule: Q04DX003 (ip), vehicle: saline + alcohol): 200 % of control
T/C (dose: 2.4 mg/kg/injection, schedule: Q04DX003 (ip), vehicle: saline + alcohol): 261 % of control
T/C (dose: 3.2 mg/kg/injection, schedule: Q01DX001 (ip), vehicle: saline + alcohol): 207 % of control
T/C (dose: 4.8 mg/kg/injection, schedule: Q04DX003 (ip), vehicle: saline + alcohol): 248 % of control
T/C (dose: 6.4 mg/kg/injection, schedule: Q01DX001 (ip), vehicle: saline + alcohol): 198 % of control

N#CC1(c2ccc(Cl)cc2)CC1
T/C [1]: 95 % of control
T/C [2]: 92 % of control
T/C [3]: 100 % of control
T/C [4]: 100 % of control

Nc1ncnc2sc3c(c12)CCCC3
T/C [1]: 105 % of control
T/C [3]: 114 % of control
T/C (dose: 400.0 mg/kg/injection, schedule: Q01DX009 (ip), vehicle: Klucel (hydroxypropylcellulose) (HPC)): 108 % of control

Clc1ccc2c(Cl)ncnc2c1
T/C [5]: 104 % of control
T/C [6]: 109 % of control

C=C/C=C/CCC(=O)C=[N+]=[N-]
T/C (dose: 50.0 mg/kg/injection, schedule: Q01DX005 (ip), vehicle: saline with Tween-80): 91 % of control
T/C (dose: 100.0 mg/kg/injection, schedule: Q01DX005 (ip), vehicle: saline with Tween-80): 97 % of control
T/C (dose: 200.0 mg/kg/injection, schedule: Q01DX005 (ip), vehicle: saline with Tween-80): 101 % of control

CCOC(=O)c1cnc(=S)[nH]c1N
T/C (dose: 50.0 mg/kg/injection, schedule: Q01DX009 (ip), vehicle: Klucel (hydroxypropylcellulose) (HPC)): 95 % of control
T/C (dose: 50.0 mg/kg/injection, schedule: Q04DX003 (ip), vehicle: Klucel (hydroxypropylcellulose) (HPC)): 109 % of control
T/C [1]: 100 % of control
T/C [2]: 100 % of control
T/C [3]: 95 % of control
T/C [4]: 109 % of control

CC(C)COC(=O)C1(N)CCCC1
T/C (dose: 50.0 mg/kg/injection, schedule: Q01DX009 (ip), vehicle: saline): 100 % of control
T/C (dose: 66.0 mg/kg/injection, schedule: Q01DX009 (ip), vehicle: saline with Tween-80): 95 % of control and 108 % of control
T/C (dose: 100.0 mg/kg/injection, schedule: Q01DX009 (ip), vehicle: saline): 177 % of control
T/C (dose: 150.0 mg/kg/injection, schedule: Q01DX009 (ip), vehicle: saline with Tween-80): 108 % of control and 116 % of control
T/C (dose: 200.0 mg/kg/injection, schedule: Q01DX009 (ip), vehicle: saline): 95 % of control

O=C1c2ccccc2C(=O)N1CC/C=C/c1ccc([N+](=O)[O-])cc1Cl
T/C [5]: 100 % of control
T/C [6]: 100 % of control
T/C [7]: 100 % of control

O=C(CCl)c1ccc(O)c(O)c1
T/C (dose: 3.12 mg/kg/injection, schedule: Q01DX009 (ip), vehicle: saline with Tween-80): 109 % of control
T/C (dose: 4.5 mg/kg/injection, schedule: Q04DX003 (ip), vehicle: saline with Tween-80): 104 % of control
T/C [8]: 109 % of control
T/C (dose: 9.0 mg/kg/injection, schedule: Q04DX003 (ip), vehicle: saline with Tween-80): 100 % of control
T/C (dose: 12.5 mg/kg/injection, schedule: Q01DX009 (ip), vehicle: Klucel (hydroxypropylcellulose) (HPC)): 106 % of control and 120 % of control
T/C [9]: 122 % of control
T/C (dose: 40.0 mg/kg/injection, schedule: Q01DX001 (ip), vehicle: saline): 118 % of control

C=CCc1ccccc1OC
T/C [10]: 118 % of control
T/C [11]: 104 % of control

C[Si](C)(C)O[Si](C)(C)c1ccccc1
T/C (dose: 100.0 mg/kg/injection, schedule: Q01DX001 (ip), vehicle: saline): 104 % of control
T/C (dose: 200.0 mg/kg/injection, schedule: Q01DX001 (ip), vehicle: saline): 95 % of control
T/C (dose: 400.0 mg/kg/injection, schedule: Q01DX001 (ip), vehicle: saline): 95 % of control

c1ccc(CN2CCn3nccc32)cc1
T/C (dose: 6.25 mg/kg/injection, schedule: Q01DX009 (ip), vehicle: other): 98 % of control
T/C (dose: 12.5 mg/kg/injection, schedule: Q01DX009 (ip), vehicle: other): 90 % of control
T/C (dose: 12.5 mg/kg/injection, schedule: Q04DX003 (ip), vehicle: other): 104 % of control
T/C (dose: 25.0 mg/kg/injection, schedule: Q01DX009 (ip), vehicle: other): 91 % of control
T/C (dose: 25.0 mg/kg/injection, schedule: Q04DX003 (ip), vehicle: other): 91 % of control
T/C (dose: 50.0 mg/kg/injection, schedule: Q01DX009 (ip), vehicle: other): 94 % of control
T/C (dose: 50.0 mg/kg/injection, schedule: Q04DX003 (ip), vehicle: other): 91 % of control
T/C (dose: 100.0 mg/kg/injection, schedule: Q01DX009 (ip), vehicle: other): 92 % of control
T/C (dose: 100.0 mg/kg/injection, schedule: Q04DX003 (ip), vehicle: other): 92 % of control
T/C (dose: 200.0 mg/kg/injection, schedule: Q04DX003 (ip), vehicle: other): 96 % of control

OCC(O)C(O)C(O)C(O)c1nc2ccccc2[nH]1 (centres undefined)
T/C (dose: 50.0 mg/kg/injection, schedule: Q04DX003 (ip), vehicle: saline with Tween-80): 119 % of control
T/C [5]: 97 % of control
T/C [6]: 95 % of control
T/C [7]: 103 % of control

Cc1cc(C)nc(NN)n1
T/C [8]: 98 % of control
T/C [9]: 96 % of control
T/C (dose: 25.0 mg/kg/injection, schedule: Q01DX009 (ip), vehicle: saline with Tween-80): 101 % of control
T/C [10]: 102 % of control

CS(=O)CC(O)(c1ccc(F)cc1)C1CC1 (centres undefined)
T/C [10]: 99 % of control
T/C [11]: 103 % of control

CCN(CC)CCOC(=O)CSC1C2CC3C(C2)C31 (centres undefined)
T/C (dose: 50.0 mg/kg/injection, schedule: Q01DX009 (ip), vehicle: suspension in saline): 106 % of control
T/C (dose: 100.0 mg/kg/injection, schedule: Q01DX001 (ip), vehicle: suspension in saline): 93 % of control
T/C (dose: 100.0 mg/kg/injection, schedule: Q01DX009 (ip), vehicle: suspension in saline): 107 % of control
T/C (dose: 200.0 mg/kg/injection, schedule: Q01DX001 (ip), vehicle: suspension in saline): 101 % of control
T/C (dose: 200.0 mg/kg/injection, schedule: Q01DX009 (ip), vehicle: suspension in saline): 109 % of control
T/C (dose: 400.0 mg/kg/injection, schedule: Q01DX001 (ip), vehicle: suspension in saline): 102 % of control
T/C (dose: 400.0 mg/kg/injection, schedule: Q01DX009 (ip), vehicle: suspension in saline): 111 % of control
T/C (dose: 600.0 mg/kg/injection, schedule: Q01DX001 (ip), vehicle: suspension in saline): 105 % of control

CC(=O)Oc1ccc(N2C(=O)C3C(C2=O)C2c4ccccc4C3C3CCCCN32)cc1 (centres undefined) (tested in a mixture with another compound)
T/C (dose: 6.25 mg/kg/injection, schedule: Q04DX003 (ip), vehicle: water): 97 % of control
T/C (dose: 12.5 mg/kg/injection, schedule: Q04DX003 (ip), vehicle: water): 101 % of control
T/C (dose: 25.0 mg/kg/injection, schedule: Q04DX003 (ip), vehicle: water): 99 % of control
T/C (dose: 50.0 mg/kg/injection, schedule: Q04DX003 (ip), vehicle: water): 101 % of control
T/C (dose: 100.0 mg/kg/injection, schedule: Q04DX003 (ip), vehicle: water): 91 % of control

Cc1cc(N(CCCl)CCCl)ccc1C=Nc1cccc(Cl)c1
T/C [10]: 103 % of control
T/C [11]: 119 % of control
T/C [5]: 118 % of control
T/C (dose: 200.0 mg/kg/injection, schedule: Q01DX009 (ip), vehicle: saline with Tween-80): 96 % of control
T/C [6]: 118 % of control
